Laboratory results as given in article PMC3957892, “Antibiotic Streptolydigin Requires Noncatalytic Mg^2+ for Binding to RNA Polymerase” (Antimicrobial Agents and Chemotherapy, 2014).

Legend:
RNAP = test system: RNAP; parameters: method as in PMID 791108; conditions: Stl analog lacking the acetamide group; cited from earlier work
[1] = target: T1, WT Thermus aquaticus core RNAP (Thermus aquaticus, UniProt Q9KWU6+Q9KWU7); assay: GTP (NMP) incorporation in assembled elongation complex EC1, WT RNAP; format: biochemical; conditions: for Ki: 1 mM GTP incorporation, 40°C
T1 construct: made in house
Method: (§1) Recombinant wild-type (WT) and mutant Thermus aquaticus core RNAPs were constructed and purified as described previously ([25]).
(§2) Elongation complexes (ECs) were assembled with WT and mutant (H936A/R933A and M932A [E. coli numbering]) RNAPs as described previously ([18]) and placed in transcription buffer containing 40 mM KCl and 20 mM Tris (pH 7.9). Prior to complex assembly, RNA was ^32P labeled at the 5′ end by using [γ-^32P]ATP (PerkinElmer). All reactions were carried out at 40°C. Stl (Sigma) with or without 10 mM MgCl2 was added before the reactions for 10 min at 40°C. Elongation reactions were initiated by addition of 1 mM GTP or 1 mM GTP with 10 mM MgCl2; endonucleolytic cleavage reactions were initiated by the addition of 10 mM MgCl2. Reactions were stopped by the addition of formamide-containing buffer, and products were analyzed as described previously ([18]). Fast kinetics experiments were performed as described previously ([18]). The kinetics data that were described well by a single exponent were fitted into a single-exponent equation using the nonlinear regression procedure in SigmaPlot software. Plots were normalized to the predicted maximum, which was taken as 100. The rates were then fitted in a hyperbolic equation to determine the Ki[Stl]. When the kinetics was described by a double exponent, the predicted maxima of the fast fractions were used for the fit to determine the Stl concentration that inhibited half of the complexes (equivalent of the Ki).
In order to investigate the details of the effects of Stl on RNAP active center functioning, we used artificially assembled elongation complexes (ECs). These complexes are assembled with Thermus aquaticus RNAP, fully complementary synthetic template and nontemplate DNA oligonucleotides, and an RNA oligonucleotide (Fig. 1C and D). […] We analyzed the kinetics of nucleoside monophosphate (NMP) addition in the presence of different concentrations of Stl in the elongation complex EC1, containing a 13-nucleotide-long RNA (Fig. 1C). […]

[2] = target: T1, WT Thermus aquaticus core RNAP; assay: Intrinsic (endonucleolytic) cleavage / phosphodiester bond hydrolysis in elongation complex EC2, WT RNAP; format: biochemical
Method: as §1
as §2, with “When the kinetics was described by a double exponent, the predicted maxima of the fast fractions were used for the fit to determine the Stl concentration that inhibited half of the complexes (equivalent of the Ki).” left out

[3] = target: T2, Thermus aquaticus RNAP β′H936A/R933A mutant (Thermus aquaticus, UniProt Q9KWU6+Q9KWU7, H1242A/R1239A); assay: GTP incorporation in elongation complex, H936A/R933A mutant RNAP; format: biochemical
T2 construct: made in house
Method: as §1
as §2, with “When the kinetics was described by a double exponent, the predicted maxima of the fast fractions were used for the fit to determine the Stl concentration that inhibited half of the complexes (equivalent of the Ki).” left out

[4] = target: T3, Thermus aquaticus RNAP β′M932A mutant (Thermus aquaticus, UniProt Q9KWU6+Q9KWU7, M1238A); assay: GTP incorporation in elongation complex, M932A mutant RNAP; format: biochemical
T3 construct: made in house
Method: as §1
as §2, with “When the kinetics was described by a double exponent, the predicted maxima of the fast fractions were used for the fit to determine the Stl concentration that inhibited half of the complexes (equivalent of the Ki).” left out

[5] = Mg^2+ binding to Stl, titration followed by UV absorption spectrum; conditions: deduced from titration experiment (Fig. 2A), 20 mM HEPES buffer pH 8.0; read-out: Apparent affinity of Stl for Mg^2+
Method: The spectra of Stl were recorded using a UV160U UV-visible (UV-Vis) recording spectrophotometer (Shimadzu Scientific Instruments, Inc.) in a fused silica measuring cell in the presence of the indicated concentrations of the MgCl2 in 20 mM HEPES buffer (pH 8.0).
We attempted to directly visualize if Stl can bind Mg^2+. Stl has a distinct UV absorption spectrum.

eukaryotic RNAPs = test system: eukaryotic RNAPs; parameters: method as in PMID 11124018, PMID 11297923, PMID 11839495; conditions: cited from earlier work
RNAP β′D792G = test system: RNAP β′D792G; parameters: method as in PMID 7592585; conditions: cited from earlier work
E. coli RNAP β′N792D = test system: E. coli RNAP β′N792D; parameters: method as in PMID 16167380; conditions: cited from earlier work

Compound	Inhibition of RNAP relative to Stl (RNAP)	Ki ([1]; Ki[Stl] (half-inhibitory concentration determined from the proportion of the fast fraction), Stl preincubated −Mg^2+) [µM]	Ki ([1]; Ki[Stl], Stl preincubated +Mg^2+ (10 mM MgCl2)) [µM]	Half-inhibitory concentration of Stl when preincubated with Mg^2+, times lower than when Mg^2+ was added together with NTP ([1]; NMP incorporation) [times]	Ki [2] [µM]	Concentration of Stl required to inhibit half of the ECs during hydrolysis, times lower than during NTP addition ([2]; WT RNAP, hydrolysis vs NTP addition, −Mg^2+ preincubation) [times]	Ki [3] [µM]	Half-inhibitory concentration of Stl for NMP incorporation, times lower than that for WT RNAP ([3]; β′H936A/R933A RNAP vs WT RNAP) [times]	Ki [4] [µM]	Half-inhibitory concentration of Stl for NMP incorporation, times lower than that for WT RNAP ([4]; β′M932A RNAP vs WT RNAP) [times]	Kd [5] [µM]	Inhibition of eukaryotic RNAPs (eukaryotic RNAPs)	Effect of mutation β′D792G on sensitivity to Stl (RNAP β′D792G)	Effect of β′N792D substitution in E. coli RNAP on sensitivity to Stl (E. coli RNAP β′N792D)
tirandamycin	significantly weaker inhibitor than Stl													
CNC(=O)[C@@H](C)[C@H]1C(=O)/C(=C(O)/C=C/C(C)=C/[C@@H](C)[C@H]2O[C@@]3(C)O[C@H](C=C[C@@]34CO4)[C@@H]2C)C(=O)N1[C@@H]1CC[C@H](O)[C@H](C)O1 [Stl, streptolydigin]		13.9	0.882	~15	1.83	~8	0.816	15 to 20	0.649	15 to 20	~1000	does not inhibit	strong resistance	significant enhancement of the enzyme sensitivity
